Laboratory results reported in US4132786A, “N-Substituted 2-methoxybenzenesulphonamides and medicaments containing them” (priority 1975, dated 1979).

Tests used:
[1] = Determination of acute toxicity (LD50), intravenous, male mice; conditions: mouse, in vivo, 5 mice per batch, 6 days
Procedure: The acute toxicity of the compounds according to the invention was determined on male mice whose weight varied between 24 and 26 g. The compounds are administered intravenously in solution form and at the rate of 0.5 ml per 20 g of body weight, by varying the concentration of the injected solution.
Each compound is tested on a batch of 5 mice which are examined for 6 days following the injection.

apomorphine = experiment: Determination of central antiemetic activity (apomorphine vomiting); assay type: in vivo, Beagle dogs; conditions: 1 mg/kg intramuscular; for Antiemetic effect /22 (average number of vomitings for two dogs): 30 min before 0.1 mg/kg apomorphine s.c., counted 30 min, controls 22
Procedure: These tests were carried out on adult Beagle dogs with a weight of 7 to 12 kg and which had gone without food for 18 hours. The dogs receive a dose of 1 mg/kg (0.1 ml/kg) of the compound according to the invention by intramuscular injection. 30 minutes later, 0.1 mg/kg (0.1 ml/kg) of apomorphine is administered to them subcutaneously as a central compound. The vomitings during the 30 minutes following the injection of apomorphine are counted. For two dogs serving as controls and receiving only the apomorphine 22 vomitings were counted. […] The results were confirmed by alternate tests by resuming these tests and interchanging the control dogs and the dogs on which the compounds according to the invention were previously tried.
The results relating to the toxicity and the central antiemetic activity of the compounds given hereinbefore are stated clearly in the following Table. The antiemetic activity is expressed in the form of the average number of vomitings for two dogs and is to be compared with the number 22 obtained with the control animals.

pentetrazole = experiment: Anticonvulsive activity (pentetrazole convulsions); assay type: in vivo, mice; conditions: 50 mg/kg i.p., pentetrazole 100 mg/kg i.p.
Procedure: The compounds according to the invention were tested for their anticonvulsive activity by following the procedure described hereinafter.
Each compound is administered intraperitoneally to a batch of mice at the rate of 50 mg of compound per kilogram of body weight. 30 minutes later the mice receive, still intraperitoneally, 100 mg/kg of pentetrazole.
The time of appearance of the first convulsions (clonic convulsions), that of the tonic convulsions (hyperextension) and the death of the mice is then measured. The injections of pentetrazole are carried out comparatively on control animals.

[2] = Solubility remark in the Toxicity column; assay type: physicochemical; conditions: in words
cornea of rabbits = experiment: Local anesthetic activity by Regnier's method; assay type: in vivo; conditions: in words
Procedure: This activity was measured on the cornea of rabbits by Regnier's method, described on particular in "Principes de la pharmacodynamie," pp. 204-206, Masson (1959).

Row | SMILES | LD50 at 144 h [1] [mg/kg] | Antiemetic effect /22 (average number of vomitings for two dogs) (apomorphine) [vomitings] | other results
1 | COc1cc(N)c(Cl)cc1S(=O)(=O)NCCCN1CCCCC1 [Ref. o] | 80 to 100 | – | –
2 | CCN(CC)CCCNS(=O)(=O)c1cc(Cl)c(N)cc1OC [Ref. i, 2-methoxy-4-amino-5-chloro-N-(3-diethylaminopropyl)benzenesulphonamide] | 117 | 3 | antiemetic activity (apomorphine; in words, apomorphine 0.1 mg/kg s.c.): excellent; mice dead at the end of the test (of five in the batch) (pentetrazole; of the five mice): three; lethalness (pentetrazole; in words): a decrease in the lethalness
3 | COc1cc([N+](=O)[O-])c(Cl)cc1S(=O)(=O)NCCN1CCCCC1 [Ref. d] | > 100 | 16 | –
4 | COc1cc(N)c(Cl)cc1S(=O)(=O)NCCCN(C)C [Ref. h] | > 100 | 9 | –
5 | COc1ccc(Cl)cc1S(=O)(=O)NCCN(C)C [Ref. k] | > 100 | 22 | –
6 | CCN(CC)CCCNS(=O)(=O)c1cc(Cl)ccc1OC [Ref. m] | – | 12 | solubility (printed in Toxicity column) [2]: insoluble
7 | CCN(CC)CCNS(=O)(=O)c1cc(Cl)c(N)cc1OC [Ref. f] | 50 to 100 | 13 | –
8 | CCN(CC)CCCNS(=O)(=O)c1ccc(N)cc1OC [Ref. c, 2-methoxy-4-amino-N-(3-diethylaminopropyl)benzenesulphonamide] | 50 to 100 | 17 | local anesthetic action (cornea of rabbits): a certain local anesthetic action
9 | COc1cc(N)c(Cl)cc1S(=O)(=O)NCCN1CCCCC1 [Ref. g] | 50 to 100 | 13 | –
10 | COc1ccc(S(N)(=O)=O)cc1S(=O)(=O)NCCN(C)C [Ref. n] | > 100 | – | –
11 | CCN(CC)CCNS(=O)(=O)c1ccc([N+](=O)[O-])cc1OC | > 100 | 15 | –
12 | CCN(CC)CCNS(=O)(=O)c1cc(Cl)ccc1OC [Ref. l] | > 100 | 8 | –
13 | COc1cc(N)c(Cl)cc1S(=O)(=O)NCCCN1CCOCC1 [Ref. j] | > 100 | 22 | –
14 | CCN(CC)CCCNS(=O)(=O)c1cc(Cl)c([N+](=O)[O-])cc1OC [Ref. e] | > 100 | – | –
15 | CCN(CC)CCNS(=O)(=O)c1ccc(N)cc1OC [Ref. b, 2-methoxy-4-amino-N-(2-diethylaminoethyl)benzenesulphonamide] | > 100 | 22 | local anesthetic action (cornea of rabbits): a certain local anesthetic action
